In patent publication US7214519B2, “Screening method for identifying heme independent modulators of soluble guanylyl cyclase (sGC) activity using αβCys105 mutant sGC” (Board of Regents of the University of Texas System, priority 2003, dated 2007):
Positions count from the first letter of the chain named. One block for each molecule: values may come before it.

Columns and labels:
αβ^Cys105 mutant sGC = biological target: T1, αβ^Cys105 mutant sGC (Homo sapiens, UniProt Q02108+Q02153, H105C); assay: Assay of sGC activity ([32P]cGMP formation from GTP), purified αβ^Cys105 mutant enzyme; assay type: biochemical
T1 construct: made in house; host or cells: Sf9 cells (baculovirus)
T1 sequence (Q02153 1-619 H105C): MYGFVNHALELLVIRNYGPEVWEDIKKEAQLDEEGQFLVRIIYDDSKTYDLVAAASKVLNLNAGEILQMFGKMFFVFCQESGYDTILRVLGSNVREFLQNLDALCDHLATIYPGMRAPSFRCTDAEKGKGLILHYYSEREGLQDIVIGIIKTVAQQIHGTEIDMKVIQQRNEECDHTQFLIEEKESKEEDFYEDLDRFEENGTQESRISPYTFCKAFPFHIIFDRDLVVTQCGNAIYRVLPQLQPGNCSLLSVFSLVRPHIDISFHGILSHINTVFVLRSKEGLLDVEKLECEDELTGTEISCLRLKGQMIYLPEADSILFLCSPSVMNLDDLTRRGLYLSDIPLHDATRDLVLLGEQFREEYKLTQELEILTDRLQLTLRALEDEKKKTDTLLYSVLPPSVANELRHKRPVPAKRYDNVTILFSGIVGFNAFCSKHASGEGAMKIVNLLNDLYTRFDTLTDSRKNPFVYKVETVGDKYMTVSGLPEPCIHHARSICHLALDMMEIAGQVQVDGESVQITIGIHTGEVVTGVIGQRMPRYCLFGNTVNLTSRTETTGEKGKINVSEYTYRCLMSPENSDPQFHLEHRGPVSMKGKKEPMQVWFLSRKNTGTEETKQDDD
T1 sequence (Q02108 1-690): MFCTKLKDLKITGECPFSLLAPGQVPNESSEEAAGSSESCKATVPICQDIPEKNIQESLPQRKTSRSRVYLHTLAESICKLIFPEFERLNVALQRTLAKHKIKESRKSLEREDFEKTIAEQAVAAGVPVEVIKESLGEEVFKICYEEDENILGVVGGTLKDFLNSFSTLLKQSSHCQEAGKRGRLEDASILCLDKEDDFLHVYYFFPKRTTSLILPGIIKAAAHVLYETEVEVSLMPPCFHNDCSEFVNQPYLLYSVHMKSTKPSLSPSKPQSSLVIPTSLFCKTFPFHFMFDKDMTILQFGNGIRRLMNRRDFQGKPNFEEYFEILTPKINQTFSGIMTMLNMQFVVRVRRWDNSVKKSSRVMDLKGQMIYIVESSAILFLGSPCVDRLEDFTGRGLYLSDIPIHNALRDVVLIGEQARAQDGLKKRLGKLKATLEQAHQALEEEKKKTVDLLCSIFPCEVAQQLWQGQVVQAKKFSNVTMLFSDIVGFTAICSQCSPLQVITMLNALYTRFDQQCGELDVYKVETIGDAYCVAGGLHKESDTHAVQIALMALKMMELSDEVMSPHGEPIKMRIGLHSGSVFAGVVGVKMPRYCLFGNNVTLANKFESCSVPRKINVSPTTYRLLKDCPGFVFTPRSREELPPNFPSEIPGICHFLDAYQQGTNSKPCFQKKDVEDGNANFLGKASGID
Procedure: (§1) sGC Expression and Purification. […] Purification of sGC was performed as described earlier (26), the disclosure of which is hereby incorporated herein by reference, with the following modifications. Cells were harvested 72 h post infection, resuspended in loading buffer (25 mM triethanolamine, pH 7.5. 10 glycerol, 4 mM MgCl2 and 1 mM phenylmethylsulfonyl fluoride, and 5 μg/ml each of pepstatin A, leupeptin, aprotinin, and chymostatin,) and lysed by sonication. The lysate was subjected to 100,000×g centrifugation for 1 h. The high-speed supernate was loaded on a 60 ml DEAE-Sepharose (Amersham Pharmacia Biotech) column and washed with 60 ml of loading buffer without protease inhibitors. The proteins were eluted with loading buffer containing 250 mM NaCl and the eluate was directly loaded on a 30 ml His-Bind resin (Novagen) column. The column was washed with 60 ml of loading buffer followed by 60 ml of loading buffer with 45 mM imidazole. The enzyme was eluted with 175 mM imidazole and 2 ml fractions were collected. […] The enzyme at this stage was approximately 90–95% pure. To remove imidazole, sGC-containing fractions were diluted 3 fold with 25 mM triethanolamine pH 7.5, loaded on a 2 ml Hi-Trap DEAE-Sepharose column (Amersham Pharmacia Biotech), washed with 10 ml of loading buffer and eluted with 25 mM triethanolamine pH 7.5, 250 mM NaCl, 10 glycerol, 4 mM MgCl2, 0.5 mM EDTA, 0.5 mM EGTA. The enzyme obtained at this stage (95% or greater purity) was used for experiments.
(§2) Assay of sGC Activity. Enzyme activity was assayed by formation of [^32P] cGMP from α[^32P]GTP at 37° C. in a final volume of 100 μl. Incubation medium contained 50 mM triethanolamine-HCl buffer (pH 7.4), 1 mM 3-isobutyl-1-methylxanthine (IBMX), 1 mg/ml BSA. 1 mM cGMP, 3 mM MgCl2, 0.05 mg/ml creatine phosphokinase, 5 mM creatine phosphate, 0.1 mM EGTA. 200 μM GTP (about 10.000 cpm/pmol). The reaction was started by addition of the substrate (GTP) with or without activators. 1 mM DTT, GSH or cysteine were added to the incubation medium before the addition of GTP. Thiol concentration varied in some experiments as indicated. Samples containing 0.2 μg sGC were incubated for 10 or 15 min and the reaction was stopped by addition of 500 μl 150 mM zinc acetate and 500 μl 180 mM sodium carbonate. The pellet of zinc carbonate containing most of the unreacted GTP was removed by centrifugation and the supernatant fractions were loaded onto columns filled with 1 g of neutral alumina. Columns were then eluted with 10 ml 0.1 M Tris-HCl buffer (pH 7.5) and Cherenkov radiation in flow through plus eluate was counted in a LKB liquid scintillation spectrometer. Samples incubated in the absence of sGC were used as a negative control. The concentration of dimethylsulfoxide (DMSO) used as a vehicle for YC-1 was not higher than 0.1 and had no effect on sGC activity as determined previously.

wild type sGC = biological target: T2, wild type sGC (Homo sapiens, UniProt Q02108+Q02153); assay: Assay of sGC activity ([32P]cGMP formation from GTP), purified wild type enzyme; assay type: biochemical
T2 construct: made in house; host or cells: Sf9 cells (baculovirus)
T2 sequence (Q02153 1-619): T1 sequence (Q02153 1-619 H105C) with C105H
T2 sequence (Q02108 1-690): T1 sequence (Q02108 1-690)
Procedure: as §1, §2

[1] = 2 μM BAY-41-2272, data not shown

Compound: Nc1nc(-c2nn(Cc3ccccc3F)c3ncccc23)ncc1C1CC1 [BAY-41-2272, 5-cyclopropyl-2-[1-(2-fluoro-benzyl)-1H-pyrazolo[3,4-b]pyridin-3-yl]-pyrimidin-4-ylamine, reference compound]
- effect compared with 100 μM YC-1 (αβ^Cys105 mutant sGC; [1]): Identical effects
- effect compared with 100 μM YC-1 (wild type sGC; [1]): Identical effects

Compound: O[C@@H](CS)[C@@H](O)CS [DTT, reference compound]
- concentration at which inhibitory effect is prominent (αβ^Cys105 mutant sGC; concentration-response, FIG. 1B): higher than 1 mM
- fold decrease in enzymatic activity (αβ^Cys105 mutant sGC; millimolar concentrations of DTT): 5–7 fold
- change of activity without DTT (wild type sGC; 1 mM DTT vs no thiols): did not change significantly

Compound: C=CC1=C(C)c2cc3[nH]c(cc4nc(cc5[nH]c(cc1n2)c(C)c5CCC(=O)O)C(CCC(=O)O)=C4C)c(C)c3C=C [PPIX, protoporphyrin IX, reference compound]
- stimulation of basal activity by PPIX (αβ^Cys105 mutant sGC; 1 μM PPIX, absence of DTT): 80

Compound: OCc1ccc(-c2nn(Cc3ccccc3)c3ccccc23)o1 [YC-1, 3-(5′-Hydroxymethyl-2′furyl)-1-benzyl-indazole, reference compound]
- increase of activity with YC-1 activation (αβ^Cys105 mutant sGC; 100 μM YC-1, DTT-free conditions): 30
- extent of activation by YC-1 after heme reconstitution (αβ^Cys105 mutant sGC; 100 μM YC-1, DTT-treated heme-reconstituted enzyme): did not change the extent of activation
- fold activation by YC-1 (αβ^Cys105 mutant sGC; 100 μM YC-1, in the presence of DTT): up to 3 fold
- fold stimulation by YC-1 (wild type sGC; 100 μM YC-1): 11 fold
- specific activity with YC-1 (wild type sGC; 100 μM YC-1): 0.15 µmol/min/mg

More lines, now with the values ahead:

- specific activity in the presence of GSH (αβ^Cys105 mutant sGC; GSH as reducing agent, no DTT): up to 2 μmol/min/mg
- effect of GSH on activity (αβ^Cys105 mutant sGC; GSH concentration above 1 mM): slight stimulatory effect
Compound: N[C@@H](CCC(=O)N[C@@H](CS)C(=O)NCC(=O)O)C(=O)O [GSH, glutathione, reference compound]

- activity with arachidonic acid (αβ^Cys105 mutant sGC; 1 mM arachidonic acid, in the presence of DTT): 0.5 µmol/min/mg
- fold stimulation by arachidonic acid (αβ^Cys105 mutant sGC; 1 mM, in the presence of DTT): 3.5 fold
- stimulation by arachidonic acid (αβ^Cys105 mutant sGC; absence of DTT): only modestly stimulated
- maximum fold activation by arachidonic acid (wild type sGC; not affected by DTT, data not shown): 3 fold
Compound: CCCCC/C=C\C/C=C\C/C=C\C/C=C\CCCC(=O)O [arachidonic acid, reference compound]

- sensitivity to cystamine in the presence of DTT (αβ^Cys105 mutant sGC; 1 mM cystamine, 1 mM DTT): less sensitive
- effect of cystamine on activity in the presence of DTT (wild type sGC; 1 mM cystamine, 1 mM DTT): reversed
- effect of cystamine on activity (wild type sGC; 1 mM cystamine, no DTT): inhibited
Compound: NCCSSCCN [cystamine, reference compound]
